From patent US20130053435A1, “Methods of Treating Alcohol Intoxication, Alcohol Use Disorders and Alcohol Abuse Which Comprises the Administration of Dihydromyricetin” (priority 2011, published 2013)

How the values were obtained:
GABAAR α4 subunit = assay: Cell-surface biotinylation and Western blot in cultured hippocampal neurons; format: cell-based, rat; conditions: 24 hr
Protocol: Western blots of the cultured neurons were performed and examined as described herein. Biotinylation assays for GABAARs of the cultured neurons were performed as described previously. See Chung W O, et al. (2000) Infect Immun 68(12):6758-6762. Briefly, the neurons in culture dishes were placed on ice and washed twice with ice cold PBS. Then the neurons were incubated for 30 min on ice with PBS containing 1 mg/ml sulfo-NHS-LC-biotin (ProteoChem). After quenching the biotin-reaction with Tris-buffered saline (TBS), neurons were lysed in 150 μl of modified RIPA-buffer (20 mM Tris-HCl (pH 7.5), 150 mM NaCl, 1 mM Na2 EDTA, 1 mM EGTA, 1% NP-40, 1% sodium deoxycholate, 2.5 mM sodium pyrophosphate, 1 mM b-glycerophosphate, 1 mM Na3VO4, and 1 μg/ml leupeptin). The homogenates were centrifuged for 15 min (14,000×g, 4° C.). An aliquot (10%) of the supernatant was removed to measure β-actin. The remaining supernatant was incubated with 60 μl of 50% neutravidin agarose (Pierce Chemical Company) for 4 hr at 4° C. and washed four times with lysis buffer. Agarose-bound proteins were taken up in 20 μl of SDS sample buffer and boiled. Western blots were performed as mentioned above.
The surface expression of α4 subunit in cultured neurons was measured using cell-surface biotinylation followed by Western blot analysis.

GABAARs [1] = test system: T1, GABAARs; assay: Whole-cell patch-clamp, DGCs in hippocampal slices, acute drug application; format: cell-based, rat; conditions: in the presence of 60 mM EtOH, rat hippocampal slices
T1 construct: other: in the presence of 60 mM EtOH, rat hippocampal; shift of the GABA concentration-response curve
Protocol: (§1) Transverse slices (400 μm) of dorsal hippocampus were obtained with a Vibratome (VT 100, Technical Products International, St. Louis, Mo.) and standard techniques known in the art. Slices were continuously perfused with artificial cerebrospinal fluid (ACSF).
(§2) Signals were recorded in voltage-clamp mode with a […] amplifier (Molecular Devices, Sunnyvale, Calif.). Whole cell access resistances were in the range of <25 MΩ before electrical compensation by about 70%. During voltage-clamp recordings, access resistance was monitored by measuring the size of the capacitative transient in response to a 5 mV step command and the data were abandoned if changes >20% were encountered. At least 10 min was allowed for equilibration of the pipette solution with the intracellular milieu before commencing mIPSC recordings.
(§3) Data were analyzed using the Clampfit (Version 9.0, Molecular Devices) and the MiniAnalysis Program (versions 6.0.7, Synaptosoft, Decatur, Ga.).
(§4) The MiniAnalysis program (Synaptosoft, Decatur, Ga.) was used to analyze mIPSCs. Itonic is the averaged baseline currents of a given recording period. Itonic amplitude was calculated as the difference between the holding currents measured before and after picrotoxin (100 μM) or bicuculline (10 μM). […] Briefly, the recordings were low-pass filtered off-line (Clampfit software) at 2 kHz. The mIPSCs were detected (Mini Analysis Program, version 6.0.7) with threshold criteria of 8 pA amplitude and 20 pA*ms charge transfer. The frequency of mIPSCs was determined from all automatically detected events in a given 100 s recording period. For kinetic analysis, only single event mIPSCs with a stable baseline, sharp rising phase (10 to 90% rise time), and exponential decay were chosen during visual inspection of the recording trace. Double and multiple peak mIPSCs were excluded. At least 100 individual mIPSC events were recorded under each experimental condition. The mIPSC kinetics was obtained from analysis of the averaged chosen single events aligned with half rise time in each cell. Decay time constants were obtained by fitting a double exponential to the falling phase of the averaged mIPSCs. Itonic magnitudes were obtained from the averaged baseline current of a given recording period. Itonic amplitude was calculated as the difference between the holding currents measured before and after the application of picrotoxin (50 μM) or bicuculline (10 μM). […] The investigator performing the recordings and mIPSC analysis was blind to the treatment (vehicle, EtOH, E+D, or D) that the rats received.
(§5) As performed previously, whole-cell patch-clamp recordings in dentate gyms granule cells (DGCs) from hippocampal slices in vitro were conducted.

GABAARs [2] = test system: T2, GABAARs; assay: as above; format: cell-based, rat
T2 construct: DHM-enhanced mIPSCs; other: control (vehicle) cultured neurons, DIV14; other: cultured neurons with EtOH exposure/withdrawal (60 mM, 30 min, 24 hr); EtOH-potentiated mIPSCs; effect on post-synaptic currents (mIPSCs); other: comparative experiments, rat hippocampal slices
Protocol: as §1, §2, §3, §4, §5

GABAARs [3] = test system: T3, GABAARs; assay: as above; format: cell-based, rat
T3 construct: DHM-enhanced Itonic; EC50 on GABAAR-mediated Itonic; other: control (vehicle) cultured neurons, DIV14; other: cultured neurons with EtOH exposure/withdrawal (60 mM, 30 min, 24 hr); EtOH-potentiated Itonic; GABAAR-mediated Ito
Protocol: as §1, §2, §3, §4, §5

[4] = test system: voluntary EtOH consumption in rats; assay: Intermittent access two-bottle choice voluntary EtOH intake; format: in vivo, rat; conditions: for EtOH consumption: E+D/water sub-group switched after 4 weeks
Protocol: All fluids were presented in 100 ml graduated glass cylinders with stainless-steel drinking spouts inserted 15 min after the lights went off in the reversed light/dark cycle room. Bottles were weighed 30 min and 24 hrs after the fluids were presented. Each rat was weighed daily to monitor health and calculate the grams of ethanol intake per kilogram of body weight.
Sweetener (2 pk/L) was added to every bottle for the first week. Sweetener (1 pk/L) was added to every bottle for the second week. […] Rats had unlimited access to two bottles of water between the EtOH-access periods. The placement of the EtOH bottle was alternated each EtOH drinking session to control for side preferences. Rats were maintained on 20% EtOH intermittent access two-bottle choice paradigm for 7 weeks (21 EtOH-access sessions). […] The rest of the EtOH group continued EtOH-access sessions. EtOH consumption was expressed as grams of EtOH consumed per kilogram of body weight. Rats access to two bottles of water were taken as the control-group. There was no significant difference in body weight between the control and the EtOH-drinking rats at the end of the experiments.

[5] = DHM 0.3 μM, DGCs from naïve rats
[6] = DHM 1 μM, DGCs in hippocampal slices
[7] = comparative experiments, rat hippocampal slices

O=C1c2c(O)cc(O)cc2O[C@H](c2cc(O)c(O)c(O)c2)[C@H]1O [DHM, (2R,3R)-3,5,7-trihydroxy-2-(3,4,5-trihydroxyphenyl)-2,3-dihydrochromen-4-one]
α4 surface expression (GABAAR α4 subunit; neurons treated with DHM): 125.0±27.3 % of control | α4 subunit surface expression (GABAAR α4 subunit; neurons treated with EtOH+DHM): 123.0±8.4 % of control | block of EtOH potentiation of GABAAR-mediated Itonic and mIPSCs (GABAARs [1]): dose-dependently blocks | mIPSC total charge transfer (area) (GABAARs [2]; [5]): 615±22 fC | mIPSC area (GABAARs [2]; [6]): 0.72±0.03 nC | EtOH-potentiated mIPSCs (GABAARs [2]; EtOH 60 mM + DHM 3 μM): 0.70±0.02 nC | effect on post-synaptic currents (mIPSCs) (GABAARs [2]; [7]): potentiates | GABAAR-mediated Itonic (GABAARs [3]; [5]): 29.0±6.7 pA | Itonic (GABAARs [3]; [6]): 44.0±4.1 pA | Itonic in presence of DHM plus EtOH (GABAARs [3]; DHM (0.3 μM) followed by co-application of 60 mM EtOH): 44.4±3.6 pA | Itonic in presence of DHM before EtOH (GABAARs [3]; DHM (0.3 μM, FIG. 3 panel c) before EtOH): 41.1±2.2 pA | EtOH-potentiated Itonic (GABAARs [3]; EtOH 60 mM + DHM 3 μM): 21.0±0.9 pA | EtOH-potentiated Itonic (GABAARs [3]; EtOH 60 mM followed by co-application of 1 μM DHM): 32.0±2.0 pA | effect on extrasynaptic GABAAR-mediated tonic current (Itonic) (GABAARs [3]; [7]): potentiates | EtOH-intake ([4]; E+D/water group, DHM 0.05 mg/ml in 20% EtOH from start): 2.6 ± 0.4 g/kg/day | EtOH consumption ([4]; end of 6th week): 1.2 ± 0.2 g/kg/day | EtOH consumption ([4]; end of the 5th week): 1.8 ± 1.0 g/kg/day
